Measurements taken from the NIST ThermoML archive (doi:10.1016/j.jct.2015.04.027).

Assay: xn = mol fraction of the nth substance listed
Conditions: 100 kPa, Liquid; for viscosity: Falling or rolling sphere viscometry; for mass density: Vibrating tube method

CN(C)C(=[NH2+])N(C)C.c1c[n-]cn1 [1,1,3,3-tetramethylguanidinium imidazol-1-ide] + CCCCO
Conditions	mass density, 293.15 K [kg/m3]	mass density, 298.15 K [kg/m3]	mass density, 303.15 K [kg/m3]	mass density, 308.15 K [kg/m3]	mass density, 313.15 K [kg/m3]	viscosity, 293.15 K [mPa·s]	viscosity, 298.15 K [mPa·s]	viscosity, 303.15 K [mPa·s]	viscosity, 308.15 K [mPa·s]	viscosity, 313.15 K [mPa·s]
x1 = 0.0499	828.74	824.87	820.97	817.04	813.07	3.053	2.7	2.399	2.141	1.92
x1 = 0.1004	845.73	841.79	837.82	833.83	829.83	3.248	2.868	2.549	2.276	2.04
x1 = 0.1999	875.01	870.95	866.87	862.77	858.67	3.727	3.272	2.89	2.569	2.298
x1 = 0.2997	899.57	895.41	891.24	887.07	882.9	4.41	3.801	3.323	2.931	2.604
x1 = 0.3985	920.24	916.05	911.78	907.55	903.31	5.155	4.414	3.823	3.343	2.948
x1 = 0.4997	938.26	933.99	929.7	925.4	921.09	6.003	5.029	4.322	3.751	3.286
x1 = 0.6499	960.31	955.97	951.62	947.27	942.92	7.076	5.887	5	4.267	3.737
x1 = 0.8002	978.39	974	969.59	965.19	960.8	8.02	6.617	5.547	4.739	4.097
x1 = 0.9004	988.56	984.14	979.72	975.28	970.84	8.6	7.032	5.877	5.021	4.299
x1 = 1	997.25	992.8	988.35	983.9	979.46	8.952	7.287	6.044	5.097	4.358
